# Reference: patent US6824990B1, “Methods of detecting and modulating oligomerization of G protein-coupled receptors” (priority 1999, dated 2004)
# Assays:
# [1] = molecular target: T1, Ste2Δtail-CFP and Ste2Δtail-YFP (Saccharomyces cerevisiae, UniProt D6VTK4); assay: FRET in purified plasma membrane fractions; format: biochemical, S. cerevisiae
# T1 construct: CFP and YFP were joined 8 amino acids (position 304) beyond transmembrane domain VII of the α-factor receptor; expressed in transfected cells; host or cells: S. cerevisiae KBY58 (ste2Δ), single copy plasmids, STE2 promoter
# T1 sequence (D6VTK4 1-304, stated change not applied): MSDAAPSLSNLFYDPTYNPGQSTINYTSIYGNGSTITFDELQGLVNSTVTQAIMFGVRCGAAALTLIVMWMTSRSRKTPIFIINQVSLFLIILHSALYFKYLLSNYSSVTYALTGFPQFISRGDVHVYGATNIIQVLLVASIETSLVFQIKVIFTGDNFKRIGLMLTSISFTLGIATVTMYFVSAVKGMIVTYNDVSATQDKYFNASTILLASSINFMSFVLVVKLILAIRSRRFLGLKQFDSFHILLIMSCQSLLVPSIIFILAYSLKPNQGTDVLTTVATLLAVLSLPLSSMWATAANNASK
# Protocol: Yeast cells expressed tailless α-factor receptors fused to CFP or YFP (Ste2-CFP or -YFP) and/or glucose transporters fused to YFP (Hxt1-YFP), as indicated. Untagged α-factor receptors (Ste2) or glucose transporters (Hxt1) were overexpressed where indicated. Intact cells (panels a-g) or plasma membrane fractions (panels h-i) were excited at the λmax of CFP (440 nm) and fluorescence emission was detected by scanning fluorometry. Fluorescence emission due to FRET (FRET) was determined as: (emission spectrum of cells co-expressing CFP and YFP fusion proteins)—(emission spectrum of cells expressing CFP fusion alone)—(emission spectrum of cells expressing YFP fusion alone). The efficiency of FRET (panel e) was determined as: (integrated FRET curve)/(integrated emission curve obtained upon direct excitation of YFP at 490 nm). In panels f, g and i, only the FRET emission curves are shown for experiments performed under the indicated conditions. […]
# CFP and YFP were joined 8 amino acids (position 304) beyond transmembrane domain VII of the α-factor receptor (STE2 gene product) and at the immediate C-terminus of a glucose transporter (HXT1 gene product). These fusion proteins were expressed from the STE2 promoter on single copy plasmids with different selectable markers, allowing them to be co-expressed at similar levels as shown by quantitation of CFP and YFP fluorescence. […]
# [2] = tested on: Ste2Δtail-CFP and Ste2Δtail-YFP; assay: FRET between CFP- and YFP-tagged tailless α-factor receptors in intact yeast cells; format: cell-based, S. cerevisiae; details: cells treated with latrunculin B
# Protocol: (§1) Yeast cells expressed tailless α-factor receptors fused to CFP or YFP (Ste2-CFP or -YFP) and/or glucose transporters fused to YFP (Hxt1-YFP), as indicated. Untagged α-factor receptors (Ste2) or glucose transporters (Hxt1) were overexpressed where indicated. Intact cells (panels a-g) or plasma membrane fractions (panels h-i) were excited at the λmax of CFP (440 nm) and fluorescence emission was detected by scanning fluorometry. Fluorescence emission due to FRET (FRET) was determined as: (emission spectrum of cells co-expressing CFP and YFP fusion proteins)—(emission spectrum of cells expressing CFP fusion alone)—(emission spectrum of cells expressing YFP fusion alone). The efficiency of FRET (panel e) was determined as: (integrated FRET curve)/(integrated emission curve obtained upon direct excitation of YFP at 490 nm). In panels f, g and i, only the FRET emission curves are shown for experiments performed under the indicated conditions. The results shown in each panel are representative of at least 6 independent experiments, with equivalent results.
# (§2) CFP and YFP were joined 8 amino acids (position 304) beyond transmembrane domain VII of the α-factor receptor (STE2 gene product) and at the immediate C-terminus of a glucose transporter (HXT1 gene product). These fusion proteins were expressed from the STE2 promoter on single copy plasmids with different selectable markers, allowing them to be co-expressed at similar levels as shown by quantitation of CFP and YFP fluorescence. Ste2Δtail-CFP and -YFP fusions had normal agonist binding affinities (1-2 nM) and cell surface expression (6-8,000 receptors/cell), as determined by radioligand binding assays. […] Yeast cells (KBY58, a ste2Δ mutant) expressing CFP and/or YFP fusion proteins were grown at 30° C. in selective media to a density of 10^7 cells/ml, washed, suspended in 50 mM PIPES, pH 6.0 and analyzed by scanning fluorometry. […] Cells (10^7 cells in 3 ml) or membranes (20 μg protein in 3 ml) were irradiated at 440 nm to excite CFP and fluorescence emission was recorded from 460-610 nm. […]
# [3] = molecular target: T1, Ste2Δtail-CFP and Ste2Δtail-YFP; assay: as above; format: cell-based, S. cerevisiae
# Protocol: as §1, §2
compound,measurement,setting,value
Nc1nc2c(ncn2[C@@H]2O[C@H](COP(=O)(O)OP(=O)(O)OP(O)(O)=S)[C@@H](O)[C@H]2O)c(=O)[nH]1 [GTP-γS],apparent efficiency of FRET,"[1]; 5 μM agonist and 50 μM GTP-γS (activated and uncoupled), indistinguishable from inactive, n=11",20%±2%
same,effect on efficiency of FRET,"[1]; given membrane preparation, GTP-γS 50 μM",no effect
C/C1=C/C(=O)O[C@@H]2C[C@@H](CC[C@H](C)/C=C\CC1)O[C@@](O)([C@@H]1CSC(=O)N1)C2 [latrunculin B],FRET when the actin cytoskeleton was disassembled,[2],FRET was detected
"desTrp1,Ala3,Nle12-α-factor",effect on efficiency of FRET,"[3]; given transformant, 1 nM-5 μM, 1-20 min after addition",no effect
same,apparent efficiency of FRET,"[3]; treated cells, sub-saturating to saturating ligand concentrations, indistinguishable from control cells, n=6",18%±1
